Consider 2 compounds from ChEMBL document CHEMBL4706551, “Rational design of new multitarget histamine H receptor ligands as potential candidates for treatment of Alzheimer's disease” (Eur J Med Chem, 2020).

In data set [1] the target is T1, Amine oxidase [flavin-containing] B (Homo sapiens, UniProt P27338).
T1 sequence (P27338 whole entry): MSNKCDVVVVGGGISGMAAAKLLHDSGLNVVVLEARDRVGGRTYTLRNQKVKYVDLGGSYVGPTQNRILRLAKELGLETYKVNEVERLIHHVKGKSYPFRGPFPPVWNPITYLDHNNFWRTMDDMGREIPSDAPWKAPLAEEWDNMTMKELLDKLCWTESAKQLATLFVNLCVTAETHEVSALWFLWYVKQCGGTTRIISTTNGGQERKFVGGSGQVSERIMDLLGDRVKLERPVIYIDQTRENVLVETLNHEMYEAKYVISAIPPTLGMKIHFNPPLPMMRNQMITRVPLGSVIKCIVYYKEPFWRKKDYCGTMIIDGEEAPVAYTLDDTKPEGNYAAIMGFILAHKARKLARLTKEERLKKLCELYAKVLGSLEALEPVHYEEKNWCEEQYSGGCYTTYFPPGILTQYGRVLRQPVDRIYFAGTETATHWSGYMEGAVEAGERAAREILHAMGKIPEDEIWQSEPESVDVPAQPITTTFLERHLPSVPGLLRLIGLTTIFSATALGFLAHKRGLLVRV
The experiment in a line: biochemical. Type of data set: cell-based, BTI.
Description: Inhibition of recombinant human MAO-B expressed in baculovirus infected BTI cells using p-tyramine as substrate by fluorometric assay

For data set [2], the target named is T2, MAO-A (Homo sapiens, UniProt P21397).
T2 sequence (P21397 whole entry): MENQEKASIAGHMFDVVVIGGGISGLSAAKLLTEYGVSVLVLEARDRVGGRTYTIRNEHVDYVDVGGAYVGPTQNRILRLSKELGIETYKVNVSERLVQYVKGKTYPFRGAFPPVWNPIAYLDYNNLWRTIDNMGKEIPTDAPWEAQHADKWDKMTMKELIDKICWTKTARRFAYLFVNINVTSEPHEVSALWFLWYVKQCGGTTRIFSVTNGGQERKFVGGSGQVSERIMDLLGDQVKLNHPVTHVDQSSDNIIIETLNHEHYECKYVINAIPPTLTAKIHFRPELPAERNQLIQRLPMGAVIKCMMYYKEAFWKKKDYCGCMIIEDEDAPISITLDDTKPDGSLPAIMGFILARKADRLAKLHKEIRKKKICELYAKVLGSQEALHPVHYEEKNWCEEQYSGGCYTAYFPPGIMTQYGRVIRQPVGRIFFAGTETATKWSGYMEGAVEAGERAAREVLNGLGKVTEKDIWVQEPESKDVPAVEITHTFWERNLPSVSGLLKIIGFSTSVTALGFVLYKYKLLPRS
The data set is described as follows: Inhibition of recombinant human MAO-A expressed in baculovirus infected BTI cells at 10 uM using p-tyramine as substrate by fluorometric assay relative to control. The settings on record: probe p-tyramine.

Data set [3] addresses Acetylcholinesterase (Homo sapiens, UniProt P22303). The experiment in a line: Inhibition of recombinant human AChE using ATCI as substrate incubated for 5 mins followed by substrate addition and measured after 5 mins by spectrophotometric based Ellman's method. A general note: In Ellman's method for cholinesterases, released thiocholine reacts with DTNB.
In data set [4] the test system is Mus musculus. The experiment in a line: Analgesic activity in formalin-induced nociception CD-1 mouse model assessed as reduction in pain behaviour by measuring less licking of formalin injected hind paw compound administered intraperitoneally prior to formalin induction and measured during early phase (0 to 5 mins after formalin injection) by formalin test. It counts as functional. To be noted: CD-1, ip, time 0-5 min.

Data set [5] relates to Mus musculus. The data set is described as follows: Analgesic activity in formalin-induced nociception CD-1 mouse model assessed as reduction in pain behaviour by measuring less licking of formalin injected hind paw compound administered intraperitoneally prior to formalin induction and measured during late phase (15 to 30 mins after formalin injection) by formalin test. To be noted: CD-1, ip, time 15-30 min. It counts as functional.

The subject of data set [6] is Rattus norvegicus. The experiment in a line: Memory enhancement effect in dizocilpine-induced Wistar (Krf:WI) rat model of amnesia assessed as increase in step through latency at 1.25 to 5 mg/kg, ip measured after 30 to 45 mins by step-through passive avoidance test. It counts as functional, organism-based. The settings on record: dose 1.25-5 mg/kg, time 30-45 min.

Data set [7] has as its system Rattus norvegicus. The data set is described as follows: Memory enhancement effect in dizocilpine-induced Wistar (Krf:WI) rat model of amnesia assessed as decrease in transfer latency time at 1.25 to 5 mg/kg, ip measured after 30 to 45 mins by elevated plus maze test. It counts as functional, organism-based. To be noted: dose 1.25-5 mg/kg, time 30-45 min.
The target of data set [8] is Acetylcholinesterase (Electrophorus electricus) (UniProt O42275). The experiment in a line: Non-competitive inhibition of Electric eel AChE using ATCI as substrate incubated for 5 mins followed by substrate addition and measured after 5 mins by spectrophotometric based Lineweaver-Burk plot analysis. The settings on record: time 10.0 min.
For data set [9] the target is unchanged. The experiment in a line: Non-competitive inhibition of Electric eel AChE using ATCI as substrate incubated for 5 mins followed by substrate addition and measured after 5 mins by spectrophotometric based Cornish-Bowden plot analysis. The settings on record: time 10.0 min.
Data set [10] has as its target Cholinesterase (Equus caballus) (UniProt P81908). The data set is described as follows: Non-competitive inhibition of equine serum BChE using BTCI as substrate incubated for 5 mins followed by substrate addition and measured after 5 mins by spectrophotometric based Lineweaver-Burk plot analysis. It counts as cell-free. The settings on record: time 10.0 min.
Data set [11] shares this target. The data set is described as follows: Non-competitive inhibition of equine serum BChE using BTCI as substrate incubated for 5 mins followed by substrate addition and measured after 5 mins by spectrophotometric based Cornish-Bowden plot analysis. It counts as cell-free. To be noted: time 10.0 min.
Data set [12] concerns the target T3, Acetylcholinesterase (Electrophorus electricus, UniProt O42275).
Description: Inhibition of Electric eel AChE using ATCI as substrate incubated for 5 mins followed by substrate addition and measured after 5 mins by spectrophotometric based Ellman's method
Data set [13] concerns the target Cholinesterase (Equus caballus, UniProt P81908).
Description: Inhibition of equine serum BChE using BTCI as substrate incubated for 5 mins followed by substrate addition and measured after 5 mins by spectrophotometric based Ellman's method
Data set [14] has as its target Cholinesterase (Homo sapiens, UniProt P06276).
Description: Inhibition of human BuChE by spectrophotometric based Ellman's method
Data set [15] addresses T2, MAO-A. The data set is described as follows: in vitro. The settings on record: probe p-tyramine.
Description: Inhibition of recombinant human MAO-A expressed in baculovirus infected BTI cells at 1 uM using p-tyramine as substrate by fluorometric assay relative to control
Another data set is described as follows: in vitro. The settings on record: PAMPA, pH 7.4. (In general: In PAMPA a lipid-coated filter parts donor from acceptor wells.)
In a further data set the target is Histamine H3 receptor (Homo sapiens, UniProt Q9Y5N1). The experiment in a line: biochemical.
Data set [16] deals with T3, Acetylcholinesterase. The data set is described as follows: Inhibition of Electric eel AChE using ATCI as substrate preincubated with enzyme for 60 mins followed by substrate addition and measured for 120 secs by spectrophotometric based Ellman's method.

Structures are written as SMILES. Calls of active or inactive are those of the source. The rule behind the calls is not given here.

Chain of Cholinesterase (Equus caballus) (P81908 whole entry): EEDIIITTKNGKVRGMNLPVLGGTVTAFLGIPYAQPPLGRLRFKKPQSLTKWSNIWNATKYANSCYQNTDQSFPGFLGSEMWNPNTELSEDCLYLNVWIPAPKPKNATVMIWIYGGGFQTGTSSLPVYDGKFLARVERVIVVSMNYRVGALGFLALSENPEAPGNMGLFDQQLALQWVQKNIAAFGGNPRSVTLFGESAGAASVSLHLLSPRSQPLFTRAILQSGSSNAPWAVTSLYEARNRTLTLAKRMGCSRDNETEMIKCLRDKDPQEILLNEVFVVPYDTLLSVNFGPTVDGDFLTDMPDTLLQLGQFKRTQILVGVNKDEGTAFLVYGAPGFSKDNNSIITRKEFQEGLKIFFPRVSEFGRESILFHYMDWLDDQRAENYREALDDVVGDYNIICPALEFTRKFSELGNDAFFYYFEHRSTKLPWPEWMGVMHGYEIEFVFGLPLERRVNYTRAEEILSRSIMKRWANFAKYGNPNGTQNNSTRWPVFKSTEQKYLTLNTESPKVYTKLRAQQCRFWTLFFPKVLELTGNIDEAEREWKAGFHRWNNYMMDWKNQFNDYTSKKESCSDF
Chain of Acetylcholinesterase (Electrophorus electricus) (O42275 24-633 limits assumed): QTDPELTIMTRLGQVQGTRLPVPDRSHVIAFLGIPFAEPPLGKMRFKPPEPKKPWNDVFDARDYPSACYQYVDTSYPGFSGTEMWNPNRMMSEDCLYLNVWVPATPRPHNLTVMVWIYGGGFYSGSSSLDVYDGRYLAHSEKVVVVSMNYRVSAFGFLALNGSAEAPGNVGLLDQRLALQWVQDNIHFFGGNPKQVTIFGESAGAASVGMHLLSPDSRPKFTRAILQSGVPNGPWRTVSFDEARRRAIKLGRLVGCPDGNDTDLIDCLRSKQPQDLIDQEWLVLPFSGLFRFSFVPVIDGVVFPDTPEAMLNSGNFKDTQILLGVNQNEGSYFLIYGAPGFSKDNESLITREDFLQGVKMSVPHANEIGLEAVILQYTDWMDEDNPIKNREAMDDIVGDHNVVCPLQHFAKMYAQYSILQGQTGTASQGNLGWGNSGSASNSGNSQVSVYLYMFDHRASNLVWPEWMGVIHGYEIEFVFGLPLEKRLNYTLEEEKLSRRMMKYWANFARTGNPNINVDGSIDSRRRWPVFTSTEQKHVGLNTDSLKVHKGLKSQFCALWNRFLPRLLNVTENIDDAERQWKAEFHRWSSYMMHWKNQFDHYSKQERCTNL
T3 sequence (O42275 whole entry): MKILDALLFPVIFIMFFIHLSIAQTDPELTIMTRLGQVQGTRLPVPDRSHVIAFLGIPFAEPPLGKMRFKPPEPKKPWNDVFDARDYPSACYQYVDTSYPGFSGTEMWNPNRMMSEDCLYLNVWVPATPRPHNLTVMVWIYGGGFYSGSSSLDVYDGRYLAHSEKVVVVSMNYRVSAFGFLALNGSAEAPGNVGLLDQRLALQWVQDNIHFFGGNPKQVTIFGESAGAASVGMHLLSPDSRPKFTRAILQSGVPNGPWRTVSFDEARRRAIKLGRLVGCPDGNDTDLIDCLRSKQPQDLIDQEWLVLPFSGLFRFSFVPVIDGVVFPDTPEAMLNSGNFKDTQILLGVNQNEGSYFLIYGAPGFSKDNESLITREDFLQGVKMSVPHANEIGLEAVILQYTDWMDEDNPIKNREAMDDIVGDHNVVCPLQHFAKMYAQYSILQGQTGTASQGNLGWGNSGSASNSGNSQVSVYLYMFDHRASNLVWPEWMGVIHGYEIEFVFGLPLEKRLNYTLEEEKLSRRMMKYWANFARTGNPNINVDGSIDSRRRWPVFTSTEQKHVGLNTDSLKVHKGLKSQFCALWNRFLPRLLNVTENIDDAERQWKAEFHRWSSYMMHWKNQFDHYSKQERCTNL
Chain of Cholinesterase (Equus caballus, UniProt P81908) (P81908 whole entry): as the sequence (P81908 whole entry) above
Chain of Acetylcholinesterase (Homo sapiens, UniProt P22303) (P22303 whole entry): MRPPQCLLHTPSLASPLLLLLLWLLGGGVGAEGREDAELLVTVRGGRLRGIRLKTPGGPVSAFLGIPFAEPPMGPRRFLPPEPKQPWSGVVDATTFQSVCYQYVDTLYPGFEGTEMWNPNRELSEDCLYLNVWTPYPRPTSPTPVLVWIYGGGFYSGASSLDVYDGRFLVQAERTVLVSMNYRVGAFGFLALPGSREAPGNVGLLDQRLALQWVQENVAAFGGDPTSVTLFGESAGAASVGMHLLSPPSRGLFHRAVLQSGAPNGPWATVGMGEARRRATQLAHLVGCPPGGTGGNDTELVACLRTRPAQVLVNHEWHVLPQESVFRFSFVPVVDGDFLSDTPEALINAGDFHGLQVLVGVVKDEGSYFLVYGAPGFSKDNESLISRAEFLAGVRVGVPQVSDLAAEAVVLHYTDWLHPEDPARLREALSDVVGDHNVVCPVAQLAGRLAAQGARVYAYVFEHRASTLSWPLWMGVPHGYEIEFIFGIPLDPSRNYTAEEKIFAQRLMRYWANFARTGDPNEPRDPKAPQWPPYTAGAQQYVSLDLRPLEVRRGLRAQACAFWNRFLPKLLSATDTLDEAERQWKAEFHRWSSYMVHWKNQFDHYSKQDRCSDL
Chain of Histamine H3 receptor (Q9Y5N1 whole entry): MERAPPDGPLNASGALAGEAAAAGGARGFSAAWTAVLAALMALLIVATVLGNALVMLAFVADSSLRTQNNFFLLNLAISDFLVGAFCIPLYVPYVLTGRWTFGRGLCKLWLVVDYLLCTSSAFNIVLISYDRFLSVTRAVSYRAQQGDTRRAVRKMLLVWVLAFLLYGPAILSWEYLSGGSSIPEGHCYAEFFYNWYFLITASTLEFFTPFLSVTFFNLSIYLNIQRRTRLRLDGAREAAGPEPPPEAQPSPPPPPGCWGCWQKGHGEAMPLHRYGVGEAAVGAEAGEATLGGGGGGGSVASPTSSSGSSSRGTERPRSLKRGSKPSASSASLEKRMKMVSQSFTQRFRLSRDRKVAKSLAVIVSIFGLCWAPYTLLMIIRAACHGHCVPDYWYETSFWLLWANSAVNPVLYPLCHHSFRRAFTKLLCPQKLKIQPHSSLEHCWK
Chain of Cholinesterase (Homo sapiens, UniProt P06276) (P06276 whole entry): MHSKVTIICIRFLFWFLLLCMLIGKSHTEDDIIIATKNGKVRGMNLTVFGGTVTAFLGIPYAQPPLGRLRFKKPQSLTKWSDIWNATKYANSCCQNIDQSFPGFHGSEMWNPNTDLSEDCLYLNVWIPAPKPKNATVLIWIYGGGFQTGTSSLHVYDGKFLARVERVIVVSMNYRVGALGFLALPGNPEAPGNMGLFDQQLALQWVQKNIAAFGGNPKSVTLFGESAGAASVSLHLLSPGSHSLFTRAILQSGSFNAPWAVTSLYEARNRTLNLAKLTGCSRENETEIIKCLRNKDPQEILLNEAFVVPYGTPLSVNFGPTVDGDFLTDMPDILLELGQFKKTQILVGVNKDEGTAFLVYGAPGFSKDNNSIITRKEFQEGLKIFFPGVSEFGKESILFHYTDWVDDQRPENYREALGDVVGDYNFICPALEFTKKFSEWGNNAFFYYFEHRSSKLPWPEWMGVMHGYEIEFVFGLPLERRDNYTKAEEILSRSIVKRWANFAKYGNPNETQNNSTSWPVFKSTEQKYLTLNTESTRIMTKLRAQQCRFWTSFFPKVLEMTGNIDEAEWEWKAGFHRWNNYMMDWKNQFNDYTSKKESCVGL
Description for Histamine H3 receptor: Displacement of [3H]N-alpha-methylhistamine from recombinant human histamine H3 receptor expressed in CHO-K1 cells by microbeta scintillation analysis

As usually defined, the IC50 is the concentration needed to halve the response being measured. The term inhibition denotes the percentage by which the read-out fell short of the control. As a reminder, the ED50 is the dose that gives a 50% effect, or the effect in half of the subjects. For orientation: Papp means the rate of passage across a membrane or cell layer, normalised by area and donor concentration. In general, Ki refers to the dissociation constant of the complex between target and ligand, obtained from inhibition or displacement. Low values mean higher affinity, high ones lower affinity. Consider `O=c1c2cc(Cl)ccc2oc2ccc(OCCCCCN3CCCCCC3)cc12`, for which the 50% inhibitory concentration (IC50) in data set [1] turned out to be 897 nM; at Acetylcholinesterase [3], 120 nM; against Acetylcholinesterase [12], 136 nM; at Cholinesterase [13] it was 394 nM; against Cholinesterase [14] it was 1590 nM. In addition, on MAO-A [2], the inhibition at 10 µM was less than 50%. The figures for the 50% effective dose (ED50) with Mus musculus [4] and with Mus musculus [5] were 27.3 mg/kg and 22.5 mg/kg, respectively. Moreover, the result in the data set on Rattus norvegicus [6] and in the data set with Rattus norvegicus [7] was inactive. Besides, the inhibition result in data set [8], in data set [9], in data set [10] and in data set [11] was “Active” each time. This compound also had an inhibition at 1 µM against MAO-A [15] of 12%. Also, the Papp at 5 h, 200 µM in the data set “in vitro” turned out to be 2.2 ×10⁻⁶ cm/s. For the same compound, the inhibitory constant (Ki) on Histamine H3 receptor came to 100 nM.
The compound `O=c1c2ccccc2oc2cc(OCCCCCN3CCCCC3)cc(O)c12` returned an IC50 on Acetylcholinesterase [16] of 460 nM.
